This is an account of results in article PMC9629815, “MK256 is a novel CDK8 inhibitor with potent antitumor activity in AML through downregulation of the STAT pathway” (Oncotarget, 2022).

Structures are written as SMILES. Where two headings read alike, the source gives them in different places.

For one series, the target named is CYP2D6 (Homo sapiens, UniProt P10635). Briefly: Cytochrome P450 inhibition assay. In kind it is in vitro ADME. The conditions noted are these: 50 uM.
The test system of a further series is MCL-1 mRNA in KG-1 cells. Briefly: Real-time RT-PCR of MCL-1 mRNA. In kind it is cell-based. As to the method:
(§1) Total RNA from the various cell lines was isolated using the RNeasy extraction method (Qiagen, Valencia, CA, USA). First-strand cDNA was synthesized from total RNA by iScript cDNA synthesis (Bio-Rad, Hercules, CA, USA) according to the manufacturer’s instructions. Taqman RT–PCR analysis was performed on cDNA in a 384-well plate, using a Prism 7900HT Real-Time PCR System (Applied Biosystems, Foster City, CA, USA). Primers and Taqman probes were purchased from Applied Biosystems. The expression of target genes MCL1 (Hs03043899_m1, Thermo fisher) and CCL2 (Hs00234140_m1, Thermo fisher) in each sample was assayed in triplicate and normalized to human GUSB for mRNA expression analysis. An unpaired t test was used to calculate statistical significance.

Series [1] deals with MCL-1 mRNA in MOLM-14 cells. Briefly: Real-time RT-PCR of MCL-1 mRNA. In kind it is cell-based. Here is the method: as §1
For a further series, the system named is SET-2. Briefly: Cell proliferation assay (CellTiter-Glo, 7-day). The format is cell-based. Particulars: Homo sapiens, SET-2, 168 h.
In a further series the test system is MDR1. Briefly: MDCK-MDR1 permeability assay. The format is in vitro ADME. The conditions noted are these: dog, MDCK-MDR1, read-out: Efflux Ratio (B-A/A-B). Here is the method: (§2) MDCK-MDR1 cells were plated into 96-well Millipore Millicell-96 plates at 7,500 cells/75 μL/well and incubated for three days at 37°C with 5% CO2. Cells were washed with Hank’s Balanced Salt Solution (HBSS) with 5 mM HEPES for 30 minutes before the experiment began. MK256 was prepared by diluting DMSO stock into HBSS buffer, resulting in a final DMSO concentration of 0.1%. Prior to the experiment, cell monolayer integrity was verified by […] electrical resistance (TEER). The transport experiment was initiated by adding MK256 to the apical (75 μL) or basal (250 μL) side. Transport plates were incubated at 37°C in a humidified incubator with 5% CO2. Samples were taken from the donor and acceptor compartments after one hour and analyzed by liquid chromatography with tandem mass spectrometry (LC/MS/MS). Digoxin was used as reference control. Apparent permeability (Papp) values were calculated using the following equation: Papp = (dQ/dt)/A/C0, where dQ/dt is the initial rate of amount of test compound transported across the cell monolayer, A is the surface area of the filter membrane, and C0 is the initial concentration of the test compound, calculated for each direction using a 4-point calibration curve by LC/MS/MS. Net flux ratio between the two directional transports was calculated by the following equation: Ratio = Papp, B-A/Papp, A-B, where Papp, B-A and Papp, A-B represent the apparent permeability of test compound from the basal-to-apical and apical-to-basal side of the cellular monolayer, respectively. Recovery was calculated based on the compound concentration at the end of the experiment, compared to that at the beginning of the experiment, adjusted for volumes.

Series [2] is described as follows: MDCK-MDR1 permeability assay. The format is in vitro ADME. The conditions noted are these: dog, MDCK-MDR1. As to the method: as §2
A further series relates to MDCK-MDR1 cells. Briefly: MDCK-MDR1 permeability assay. In kind it is in vitro ADME. Particulars: 5 μM. Here is the method:
as §2

Series [3] is described as follows: Histological analysis (H&E) of major organs after 21 days treatment. The format is in vivo, mice. Particulars: 100 mg/kg, q.d., oral. Here is the method: To evaluate the behavior of MK256 in vivo we did a full pharmacokinetics (PK) analysis of MK256 in mice. […] In the MOLM-14 xenograft model, we treated mice with 10 mg/kg, 50 mg/kg and 100 mg/kg of MK256 for 6 hrs, after which tumors from each treatment group were harvested and processed for western blotting analysis. […] We also performed a histological analysis of the major organs (bone, brain, heart, intestine, kidney, liver and lung) of mice after they were treated with 100 mg/kg of MK256 for 21 days (q.d, oral) (Figure 8). […] In summary, MK256 offered a desirable solubility, permeability, hepatocyte stability, toxicology, and pharmacokinetics/pharmacodynamics (PK/PD) profile.
Figure 8 Evaluation of the toxicity of MK256 in vivo. Histological data (H&E staining) obtained in the major organs (bone, brain, heart, intestine, kidney, liver, and lung) of the mice treated with MK256 (100 mg/kg, q.d., oral) for 21 days.

The next series has as its target CYP3A4-MDZ (Homo sapiens, UniProt P08684). Briefly: Cytochrome P450 inhibition assay. In kind it is in vitro ADME. Particulars: 50 uM.
In another series the test system is MONO-MAC-6. Briefly: Cell proliferation assay (CellTiter-Glo, 7-day). Particulars: Homo sapiens, MONO-MAC-6, 168 h. In kind it is cell-based. Here is the method: [The procedure below names another cell line; the source lists this cell line under the same test.] (§3) AML cell lines MV-4-11, MOLM14, KG-1, and SKNO-1 were acquired from ATCC (Manassas, VA, USA) and DSMZ (Braunschweig, Germany). Cells were plated (96-well) in triplicate at 3000 cells per well for testing (n = 3) in 1% FBS media. On day 7, the CellTiter-Glo Luminescent Cell Viability Assay (Promega, Madison, WI, US) was performed to measure the response. Two independent experiments were done.

Another series deals with MOLM-13. Briefly: Cell proliferation assay (CellTiter-Glo, 7-day). In kind it is cell-based. The conditions noted are these: Homo sapiens, MOLM-13, 168 h. As to the method: [The procedure below names another cell line; the source lists this cell line under the same test.] as §3
The subject of the next series is MV-4-11. Briefly: Cell proliferation assay (CellTiter-Glo, 7-day). In kind it is cell-based. Particulars: Homo sapiens, MV4-11, 168 h. As to the method:
as §3

Another series concerns KG-1. Briefly: Cell proliferation assay (CellTiter-Glo, 7-day). In kind it is cell-based. The conditions noted are these: Homo sapiens, KG-1, 168 h. Here is the method:
as §3

Another series concerns MUTZ-8. Briefly: Cell proliferation assay (CellTiter-Glo, 7-day). The format is cell-based. The conditions noted are these: MUTZ-8, 168 h. Here is the method: [The procedure below names another cell line; the source lists this cell line under the same test.] as §3
For another series, the system named is SKNO-1. Briefly: Cell proliferation assay (CellTiter-Glo, 7-day). The format is cell-based. Particulars: SKNO-1, 168 h. Here is the method:
as §3

Another series relates to HEL. Briefly: Cell proliferation assay (CellTiter-Glo, 7-day). The format is cell-based. Particulars: Homo sapiens, 168 h. As to the method: [The procedure below names another cell line; the source lists this cell line under the same test.] as §3
The test system of the next series is NOMO-1. Briefly: Cell proliferation assay (CellTiter-Glo, 7-day). Particulars: Homo sapiens, NOMO-1, 168 h. In kind it is cell-based. Here is the method: [The procedure below names another cell line; the source lists this cell line under the same test.] as §3
The test system of another series is MOLM-14. Briefly: Cell proliferation assay (CellTiter-Glo, 7-day). The format is cell-based. Particulars: Homo sapiens, MOLM-14, 168 h. As to the method:
as §3

In a further series the target is CYP2C19 (Homo sapiens, UniProt P33261). Briefly: Cytochrome P450 inhibition assay. In kind it is in vitro ADME. The conditions noted are these: 50 uM.
CYP2C19, sequence (P33261 whole entry): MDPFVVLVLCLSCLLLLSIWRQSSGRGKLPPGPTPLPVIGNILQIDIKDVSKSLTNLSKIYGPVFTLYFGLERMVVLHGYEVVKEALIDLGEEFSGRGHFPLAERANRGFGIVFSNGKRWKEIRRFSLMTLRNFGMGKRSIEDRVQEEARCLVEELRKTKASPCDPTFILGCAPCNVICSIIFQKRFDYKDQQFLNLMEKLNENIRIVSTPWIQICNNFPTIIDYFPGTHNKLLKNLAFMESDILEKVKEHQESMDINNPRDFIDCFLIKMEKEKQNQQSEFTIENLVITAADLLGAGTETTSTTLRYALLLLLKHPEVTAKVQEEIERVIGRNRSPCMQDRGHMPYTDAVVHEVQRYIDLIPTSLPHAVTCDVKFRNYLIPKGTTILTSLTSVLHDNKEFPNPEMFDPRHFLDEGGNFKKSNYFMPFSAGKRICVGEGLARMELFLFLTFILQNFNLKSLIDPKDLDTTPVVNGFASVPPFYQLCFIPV
Where [4] appears, read: 7-day, bound given in text, read-out: IC50.

CYP2D6, sequence (P10635 whole entry): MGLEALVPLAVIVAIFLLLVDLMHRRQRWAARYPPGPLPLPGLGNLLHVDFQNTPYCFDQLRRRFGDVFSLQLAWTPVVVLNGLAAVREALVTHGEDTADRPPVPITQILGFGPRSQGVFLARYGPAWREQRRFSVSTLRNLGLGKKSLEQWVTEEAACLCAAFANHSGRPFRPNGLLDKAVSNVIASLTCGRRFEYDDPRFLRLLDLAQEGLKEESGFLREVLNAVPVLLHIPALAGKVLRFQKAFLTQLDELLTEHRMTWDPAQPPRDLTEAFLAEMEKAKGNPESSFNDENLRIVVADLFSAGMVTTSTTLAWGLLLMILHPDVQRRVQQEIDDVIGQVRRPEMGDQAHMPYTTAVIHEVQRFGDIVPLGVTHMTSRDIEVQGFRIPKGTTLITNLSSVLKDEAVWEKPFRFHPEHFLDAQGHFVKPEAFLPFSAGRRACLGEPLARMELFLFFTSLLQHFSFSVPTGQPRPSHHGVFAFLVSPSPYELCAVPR
CYP3A4-MDZ, sequence (P08684 whole entry): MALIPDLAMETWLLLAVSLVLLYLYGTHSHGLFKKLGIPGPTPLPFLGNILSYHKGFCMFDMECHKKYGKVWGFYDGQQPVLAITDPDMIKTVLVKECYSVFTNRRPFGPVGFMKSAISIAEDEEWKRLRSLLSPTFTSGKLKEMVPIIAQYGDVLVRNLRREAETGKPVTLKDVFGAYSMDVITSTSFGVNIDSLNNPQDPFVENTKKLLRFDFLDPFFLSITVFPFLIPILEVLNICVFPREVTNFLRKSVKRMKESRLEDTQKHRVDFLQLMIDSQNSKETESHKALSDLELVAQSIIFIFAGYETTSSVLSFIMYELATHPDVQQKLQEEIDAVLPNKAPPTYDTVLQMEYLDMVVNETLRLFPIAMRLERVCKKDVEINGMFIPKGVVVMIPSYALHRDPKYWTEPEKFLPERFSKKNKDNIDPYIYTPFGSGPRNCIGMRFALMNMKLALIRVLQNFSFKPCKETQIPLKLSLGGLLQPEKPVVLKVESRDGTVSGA

Turning to `Nc1nccc2c(Br)cc3cc(C(=O)O)ccc3c12` [MK256], the “cytochrome P450 inhibition” value on CYP2D6, on CYP3A4-MDZ and on CYP2C19 was “no inhibition” in each case. Also, the “mRNA level decreased to” value is listed as 25% in the series on MCL-1 mRNA in KG-1 cells (300 nM) and 30% in the series with MCL-1 mRNA in KG-1 cells (1 uM). Moreover, in series [1] (300 nM), the “MCL-1 mRNA level” value was “barely changed”. In addition, the “MCL-1 mRNA level downregulated by” value in series [1] (1 uM) is recorded as ~ 30%. Besides, the IC50 was 212 nM with SET-2; 1260 nM with MONO-MAC-6; 1050 nM in the series on MOLM-13; 23 nM with MV-4-11; 80 nM with KG-1; more than 2000 nM in the series with MUTZ-8 (setting [4]). Moreover, the IC50 with MUTZ-8 (read-out: IC50 nM (7-day)) is 5560 nM; in the series on SKNO-1 it was 73 nM; in the series on HEL (setting [4]), more than 2000 nM; in the series on HEL (read-out: IC50 nM (7-day)) it was 2700 nM; with NOMO-1 it was 646 nM; in the series on MOLM-14, 24 nM. The efflux ratio at 1 h, 5 µM in the series on MDR1 is 0.2. This compound also displayed a Papp A→B at 1 h, 5 μM in series [2] of 57 ×10⁻⁶ cm/s. The compound further gave a Papp B→A at 1 h, 5 μM in series [2] of 14 ×10⁻⁶ cm/s. For the same compound, the “Recover rate (%)” value in the series with MDCK-MDR1 cells is 96%. Also, in series [3], the “histology of major organs (bone, brain, heart, intestine, kidney, liver and lung)” value is on record as “did not cause visible pathological changes”.
